Source: ChEMBL document CHEMBL1156625, “NMR screening for lead compounds using tryptophan-mutated proteins” (J Med Chem, 2008)

Key:
[1] = target: Cyclin-dependent kinase 2 (Homo sapiens, UniProt P24941); experiment: Binding affinity to CDK2
[2] = Inhibition of PKC
[3] = target: Epidermal growth factor receptor (Homo sapiens, UniProt P00533); experiment: Inhibition of EGFR
[4] = Inhibition of PKA

Sequence of Epidermal growth factor receptor (P00533 whole entry): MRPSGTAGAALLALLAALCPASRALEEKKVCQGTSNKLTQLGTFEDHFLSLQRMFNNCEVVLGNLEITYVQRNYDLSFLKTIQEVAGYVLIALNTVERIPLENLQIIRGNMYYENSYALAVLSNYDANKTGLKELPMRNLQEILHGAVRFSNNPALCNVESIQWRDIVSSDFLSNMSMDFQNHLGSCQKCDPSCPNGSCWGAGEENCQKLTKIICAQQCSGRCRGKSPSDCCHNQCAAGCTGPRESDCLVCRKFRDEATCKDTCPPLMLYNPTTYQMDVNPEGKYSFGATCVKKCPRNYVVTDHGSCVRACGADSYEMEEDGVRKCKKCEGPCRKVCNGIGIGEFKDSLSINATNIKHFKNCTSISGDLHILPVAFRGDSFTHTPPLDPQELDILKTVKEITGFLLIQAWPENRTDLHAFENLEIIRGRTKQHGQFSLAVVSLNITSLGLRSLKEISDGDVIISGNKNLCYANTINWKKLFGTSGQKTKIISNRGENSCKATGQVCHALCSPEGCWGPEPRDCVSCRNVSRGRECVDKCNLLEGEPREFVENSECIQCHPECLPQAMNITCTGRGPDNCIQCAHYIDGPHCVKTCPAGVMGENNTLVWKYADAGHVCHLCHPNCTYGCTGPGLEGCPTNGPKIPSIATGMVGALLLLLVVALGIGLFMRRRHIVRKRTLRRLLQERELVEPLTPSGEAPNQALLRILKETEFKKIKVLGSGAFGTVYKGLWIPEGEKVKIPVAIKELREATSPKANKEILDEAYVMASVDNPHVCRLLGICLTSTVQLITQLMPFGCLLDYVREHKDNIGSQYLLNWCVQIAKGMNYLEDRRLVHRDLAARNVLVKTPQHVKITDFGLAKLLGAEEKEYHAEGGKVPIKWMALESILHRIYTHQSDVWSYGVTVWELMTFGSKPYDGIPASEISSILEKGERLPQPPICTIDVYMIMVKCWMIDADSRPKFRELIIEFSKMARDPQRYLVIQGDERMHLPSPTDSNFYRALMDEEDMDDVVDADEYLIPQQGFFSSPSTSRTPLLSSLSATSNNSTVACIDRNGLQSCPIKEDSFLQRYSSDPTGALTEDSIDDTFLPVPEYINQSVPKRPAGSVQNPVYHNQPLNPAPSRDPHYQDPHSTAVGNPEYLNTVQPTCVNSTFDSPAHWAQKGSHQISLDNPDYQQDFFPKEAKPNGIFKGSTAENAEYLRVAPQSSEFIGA

Kd [1]: 100 µM
IC50 [2]: > 500 µM
IC50 [3]: 16 µM
IC50 [4]: > 500 µM
Compound: O=C(/C=C/c1ccc(O)c(O)c1)c1ccc(O)cc1O [BUTEIN]
